Read-outs that look alike come from different tables or passages of the source.
Legend:
[1] = Thermodynamic stability constants of lanthanum complexes by potentiometric titration; settings: for ranking of log KLaL of lanthanum-ligand complexes: equimolar La^3+; for ranking of log KLaL of lanthanum-ligand complexes / stability of complexes with La^3+ (in words): potentiometric titration; for pLa (−log [M]free): [M]tot = 10^−6 M, [L]tot = 10^−5 M; for pLa (−log [M]free) / log KLa′ (conditional stability constant): pH 7.4, 25° C., I = 0.1M KCl
Method: Thermodynamic stability studies.
(§1) Potentiometric Titrations. Stability constant measurements were carried out by titrating an aqueous solution (˜15 mL) of ligand (˜1 mM), metal (˜1 mM), and HCl (˜10 mM) with standardized KOH (0.1 M). The ionic strength of the solution was maintained at 0.1 M using KCl. The titration method employed a 0.1 mV/min drift limit with a minimum and maximum wait time of 0 s and 300 s respectively between addition of KOH aliquots (0.015 mL volume increments). No metal hydroxide precipitation was observed within the pH range and concentration employed. […] The stability constants were calculated from the average of three independent titrations (using three independently prepared ligand stock solutions from three independent synthetic preparations of ligands).

[2] = Thermodynamic stability constants of barium complexes by potentiometric titration; settings: for pBa (−log [M]free): [M]tot = 10^−6 M, [L]tot = 10^−5 M; for pBa (−log [M]free) / log KBa′ (conditional stability constant): pH 7.4, 25° C., I = 0.1M KCl
Method: Thermodynamic stability studies.
as §1

[3] = Protonation constants by potentiometric titration; format: physicochemical; settings: I=0.1 M KCl, 25° C.
Method: Potentiometric Titrations. Stability constant measurements were carried out by titrating an aqueous solution (˜15 mL) of ligand (˜1 mM), metal (˜1 mM), and HCl (˜10 mM) with standardized KOH (0.1 M). The ionic strength of the solution was maintained at 0.1 M using KCl. The titration method employed a 0.1 mV/min drift limit with a minimum and maximum wait time of 0 s and 300 s respectively between addition of KOH aliquots (0.015 mL volume increments). […] The titration data within the pH range of 2.2-11.3 were analyzed using Hyperquad2013 software. The stability constants were calculated from the average of three independent titrations (using three independently prepared ligand stock solutions from three independent synthetic preparations of ligands).

[4] = pH 7.4
Method: Thermodynamic stability studies.
as §1

[5] = pH 7.4; remark: listed apart in the source
Method: Thermodynamic stability studies.
as §1

human GPC3 protein = molecular target: T1, human GPC3 protein (Homo sapiens, UniProt P51654); test: Binding affinity by bio-layer interferometry (BLI); settings: immobilized biotinylated human GPC3, antibody 0-25 nM, global fit
T1 construct: biotin (biotinylated); purchased Acro Biosystems, Newark, DE
Method: Biotinylated human GPC3 protein (Acro Biosystems, Newark, DE) was diluted to 1 μg/mL in assay buffer: 1×PBS with 0.02% Tween-20 and 0.1% acetylated BSA (Electron Microscopy Sciences, Hatfield, PA) in a 96-well plate and loaded onto streptavidin biosensors (ForteBio, Menlo Park, CA). Antibodies were diluted in assay buffer at 4 concentrations from 0-25 nM and loaded into a 96-well plate (final volume of 200 μL). GPC3 was loaded to a density of 0.3 to avoid avidity affects. Reference wells containing buffer only, GPC3-only and antibody only were used as blanks. Plates were run on an Octet Red96 system (FortéBio, Menlo Park, CA) and analyzed with ForteBio Octet Data Analysis software (v.11). […] The combined association and dissociation kinetic data across all concentrations were fit using the global fitting model in the Octet Analysis Studio software.

[6] = format: in vivo, mice
Method: Biodistribution. […] At 48 and 96 h post-injection, mice (n=3-4 per time point) were euthanized. Their organs were harvested and weighed, then counted on a gamma counter after allowing 24 h for ^225Ac daughters to equilibrate. The activity in each organ was decay-corrected using a standard of known activity prepared at the same time as the injections. Radiotracer uptake in each organ was calculated by dividing the % injected activity (% IA) in each organ by the organ's weight. Measurement errors are reported as the standard deviation of the % IA/g values (FIGS. 2A-2B).

[7] = format: physicochemical
Method: H2BZmacropa-NCS Hydrolysis. The stability of BZmacropa-NCS^2— towards hydrolysis was tested as the followings. A solution (1 mL) of H2BZmacropa-NCS (≈1.5 mM) was prepared in 0.1 M Na2CO3/NaHCO3pH 9.1 buffer and stored at room temperature (≈23±1° C.) in a vial covered with aluminum foil. This solution was analyzed periodically by analytical HPLC (method quick-MeCN, 5 μL aliquots) for over a week.

Row | Compound | ranking of log KLaL of lanthanum-ligand complexes [1] | log KBaL ([2]; I=0.1 M KCl, 25° C.) | pBa (−log [M]free) [2] | log K1 (protonation constant) [3] | log K2 (protonation constant) [3] | log K3 (protonation constant) [3] | log K4 (protonation constant) [3] | log KLaL ([1]; I=0.1 M KCl, 25° C.) | pLa (−log [M]free) [1] | log KLa′ (conditional stability constant) [1] | log KBaHL ([2]; I=0.1 M KCl, 25° C.) | log KBa′ (conditional stability constant) [2] | further results
1 | O=C(O)CN1CCN(CC(=O)O)CCN(CC(=O)O)CCN(CC(=O)O)CC1 [DOTA] | – | 11.75 | 6.76 | 11.14 | 9.69 | 4.85 | 3.95 | 21.7 | 16.62 | 15.67 | – | 5.72 | –
2 | O=C(O)c1cccc(CN2CCOCCOCCN(Cc3cccc(C(=O)O)n3)CCOc3ccccc3OCC2)n1 [H2BZmacropa, 6,6′-((2,3,5,6,8,9,11,12,14,15-decahydro-4H,13H-benzo[b][1,4,10,13]tetraoxa[7,16]diazacyclooctadecine-4,13-diyl)bis(methylene))dipicolinic acid] | H2macropa>H2BZmacropa>H2BZ2macropa | 9.09 | 9.87 | 7.06 | 6.41 | 3.33 | 2.49 | 13.98 | – | – | 3.56 | 8.91 | stability of complexes with La^3+ (in words) [1]: form highly stable complexes with La^3+
3 | O=C(O)CN(CCN(CC(=O)O)CC(=O)O)CCN(CC(=O)O)CC(=O)O [DTPA] | – | 8.78 | 6.15 | 10.34 | 8.59 | 4.25 | 2.71 | 19.48 | 16.28 | – | 5.34 | – | log KLa′ (conditional stability constant) [4]: 15.32; log KBa′ (conditional stability constant) [5]: 4.63; log K5 (protonation constant) [3]: 2.18
4 | GC33-BZM: "GC33-BZmacropa conjugate" | – | – | – | – | – | – | – | – | – | – | – | – | Kd (human GPC3 protein): 0.19 nM
5 | O=C(O)CN(CCN(CC(=O)O)CC(=O)O)CC(=O)O [EDTA] | – | 7.80 | 6.28 | 10.19 | 6.13 | 2.69 | 2.00 | 15.46 | 13.60 | 12.65 | – | 4.99 | –
6 | ^225Ac[Ac]-GC33-BZM: "The radioconjugate ^225Ac[Ac]-GC33-BZM" | – | – | – | – | – | – | – | – | – | – | – | – | tumor targeting compared with ^225Ac[Ac]-GC33-M ([6]; mice, intravenous 100 nCi, 48 and 96 h): no significant difference; tumor uptake ([6]; mice, intravenous 100 nCi, 48 and 96 h post-injection): clear, specific tumor uptake at both 48 and 96 h post-injection, with tumor signal greater than that of all organs at both time points; off-target accumulation in liver and femur compared with ^225Ac[Ac]-GC33-M ([6]; mouse, in vivo): higher than that of ^225Ac[Ac]-GC33-M in both the liver and femur at 48 h
7 | O=C(O)c1cccc(CN2CCOCCOCCN(Cc3cc(N=C=S)cc(C(=O)O)n3)CCOCCOCC2)n1 [H2macropa-NCS] | – | – | – | – | – | – | – | – | – | – | – | – | time for complete hydrolysis ([7]; 0.1 M Na2CO3/NaHCO3 pH 9.1 buffer, room temperature): more than a week's time; half-life of hydrolysis of the thiocyanate functional group ([7]; buffer, pH 9.1): 56 h

More lines, main results first:

Row | ranking of log KLaL of lanthanum-ligand complexes [1] | log KBaL ([2]; I=0.1 M KCl, 25° C.) | pBa (−log [M]free) [2] | log K1 (protonation constant) [3] | log K2 (protonation constant) [3] | log K3 (protonation constant) [3] | log K4 (protonation constant) [3] | log KLaL ([1]; I=0.1 M KCl, 25° C.) | pLa (−log [M]free) [1] | log KLa′ (conditional stability constant) [1] | log KBaHL ([2]; I=0.1 M KCl, 25° C.) | Compound | log KBa′ (conditional stability constant) [2] | further results
8 | H2macropa>H2BZmacropa>H2BZ2macropa | – | – | – | – | – | – | – | – | – | – | O=C(O)c1cccc(CN2CCOc3ccccc3OCCN(Cc3cccc(C(=O)O)n3)CCOc3ccccc3OCC2)n1 [H2BZ2macropa, 6,6′-((6,7,9,10,17,18,20,21-octahydro-8H,19H-dibenzo[b,k][1,4,10,13]tetraoxa[7,16]diazacyclooctadecine-8,19-diyl)bis(methylene))dipicolinic acid] | – | stability of complexes with La^3+ (in words) [1]: form highly stable complexes with La^3+
9 | H2macropa>H2BZmacropa>H2BZ2macropa | 11.11 | 11.69 | 7.41 | 6.90 | 3.23 | 2.45 | 14.99 | 15.58 | 14.63 | 3.76 | O=C(O)c1cccc(CN2CCOCCOCCN(Cc3cccc(C(=O)O)n3)CCOCCOCC2)n1 [H2macropa] | 10.74 | log KBaH2L ([2]; I=0.1 M KCl, 25° C.): 2.49; log KLaHL ([1]; I=0.1 M KCl, 25° C.): 2.28

From patent US20240261444A1, “RIGIDIFIED MACROCYCLES, COMPLEXES WITH RADIONUCLIDES, AND USE IN TARGETED RADIOTHERAPY OF CANCER” (Cornell University, priority 2021, published 2024)
